The record followed here is PubChem BioAssay AID467 (The Scripps Research Institute Molecular Screening Center, 2006).

Structures are written as SMILES. The source made the active and inactive calls. The rule behind the calls is not given here.

The subject of this assay is parental cell line counter screen, S1P1 agonist assay readout. Briefly: signal in parental cells, counter-screen for S1P1 agonist project (AID 467).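 Note: agonist potency measured against forskolin stimulation plus an EC20 level of SEW2871.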 In general terms: The purpose of a counterscreen is to sort out artefacts and off-target activity.
As to `O=C(Nc1ccc(N2CCCCC2)c(Cl)c1)c1ncn[nH]1`, the EC50 (commonly the concentration at which the effect is half-maximal) was > 95.1 µM (inactive).

Turning to `Cc1cc(/C=N/n2cnnc2)c(C)n1-c1ccc(OCc2ccccc2F)cc1`, the EC50 is 7.37 µM.

On to `CCN(CC)S(=O)(=O)c1cccc(S(=O)(=O)c2cccc(S(=O)(=O)N(CC)CC)c2)c1`, for which the EC50 was > 95.1 µM (inactive).

`CCCCCn1c(=O)c(C(=O)NCc2ccncc2)c(O)c2ccccc21`: the EC50 is 30.8 µM (inactive).

Turning to `c1ccc(-c2ccc(-c3nc(-c4cccnc4)no3)cc2)cc1`, the EC50 was > 95.1 µM (inactive).

For `O=C(Nc1nc2c(s1)CCCC2)c1cc2n(n1)C(C(F)(F)F)CC(C1CC1)N2` (centres undefined), the EC50 was > 95.1 µM (inactive).

For `COc1ccc(C(=O)C(CN2CCOCC2)c2ccccc2)cc1F` (centres undefined), the EC50 was 8.06 µM.

As to `O=S(=O)(C/C(=C/CO)S(=O)(=O)c1ccccc1)c1ccccc1`, the concentration for a half-maximal effect (EC50) is 2.21 µM.

As for `O=C(Nc1ccc(C(F)(F)F)cc1)C1CCCN1S(=O)(=O)c1cccc2cccnc12` (centres undefined), the EC50 is > 30 µM (inactive).

`CCCCc1ccc(C2C(C#N)=C(N)SC(N)=C2C#N)s1`: the EC50 is 16.8 µM (inactive).

Turning to `N/C(=N\c1nc2c(c(=O)[nH]1)CCCC2)Nc1ccccc1`, the EC50 was > 95.1 µM (inactive).

In the case of `O=C(CCC(=O)N(Cc1ccco1)C(C(=O)NC1CCCC1)c1ccncc1)Nc1cccnc1` (centres undefined), the EC50 is > 95.1 µM (inactive).

`Cc1cc(C(=O)CSc2nnc(-c3cccnc3)n2-c2ccccc2F)c(C)n1C`: the EC50 was > 95.1 µM (inactive).

In the case of `O=C(CSc1ncnc2c1oc1ccccc12)N1CCCc2ccccc21`, the EC50 is > 10 µM (inactive).

As for `CN(CC1CCCO1)S(=O)(=O)c1ccc(C(=O)Nc2nc(-c3ccccn3)cs2)cc1` (centres undefined), the EC50 was > 30 µM (inactive).

For `O=C(Nc1ccc(N2CCCC2)c(Cl)c1)c1ccc(Br)o1`, the EC50 is > 95.1 µM (inactive).

`COc1ccccc1OCCCCCc1c(C)n[nH]c1C`: the EC50 is 57.2 µM (inactive).

Regarding `COc1ccccc1OCc1nc(C#N)c(N2CC(C)CC(C)C2)o1` (centres undefined), the EC50 was > 95.1 µM (inactive).

With `COc1ccc(-c2nc(-c3cccc(C)c3)no2)cc1OC`, the EC50 is > 95.1 µM (inactive).

Regarding `CC(=O)Oc1ccc(N2C(=O)C3C(C2=O)C2(C)C=CC3(C)O2)cc1` (centres undefined), the concentration for a half-maximal effect (EC50) was 3.23 µM.

On to `COc1ccc(-c2noc(-c3cc(C)cc(C)c3)n2)cc1OC`, for which the EC50 was > 95.1 µM (inactive).

As to `Oc1ccc(-c2nc(-c3ccc(O)c(O)c3)cs2)cc1`, the 50% effective concentration (EC50) was 6.35 µM.

Take `CCCc1ccc(Oc2cn[nH]c2-c2ccc(O)c(C)c2O)cc1`: the EC50 is > 10 µM (inactive).

Regarding `COc1cc(C(=O)N2CCN(S(=O)(=O)c3ccc(C)cc3)CC2)ccc1OCc1c(C)noc1C`, the EC50 was > 95.1 µM (inactive).

Regarding `CCOC(=O)c1oc2ccc(S(=O)(=O)n3nc(-c4ccc(OC)cc4)cc3N)cc2c1C`, the EC50 was > 95.1 µM (inactive).

Turning to `Clc1ccc(CSc2nnc(-c3ccncc3)o2)cc1`, the EC50 was 86.9 µM (inactive).

In the case of `COc1ccc(OCCCSc2ncccn2)cc1`, the EC50 was > 95.1 µM (inactive).

Consider `CCOc1ccc(-c2nnc(-c3ccco3)o2)cc1OCC`, for which the EC50 is > 95.1 µM (inactive).

For the compound `CCOC(=O)c1ccc(NC(=O)CCc2nc(-c3ccc(Cl)cc3)no2)cc1`, the EC50 was > 95.1 µM (inactive).

Take `O=C(Nc1nc(-c2ccc3c(c2)OCO3)cs1)c1ccncc1`: the EC50 was 28.9 µM (inactive).

As to `CCCCNc1cc(C)nc(NCc2ccccc2)n1`, the EC50 is 12.8 µM (inactive).

For `CCOc1ccc(-c2noc(-c3cccnc3)n2)cc1OC`, the EC50 is > 95.1 µM (inactive).

`COc1ccc(-c2nc(-c3ccncc3)no2)cc1OC`: the EC50 is > 95.1 µM (inactive).

For the compound `COc1ccc(-n2nc3ccc(NS(C)(=O)=O)cc3n2)cc1Cl`, the EC50 was > 95.1 µM (inactive).

For the compound `Cc1oc2cc(O)cc(O)c2c(=O)c1-c1ccc2c(c1)OCCCO2`, the EC50 was > 30 µM (inactive).

Turning to `Cc1cc(C(=O)CSc2nnc(-c3cccs3)o2)c(C)n1-c1ccccc1`, the EC50 was 19.2 µM (inactive).

As to `O=C(c1ccc(Cl)s1)N1CCN(c2nc3ccccc3s2)CC1`, the EC50 was > 95.1 µM (inactive).

With `c1csc(CCNc2ncnc3sc4c(c23)CCC4)c1`, the EC50 is 20.3 µM (inactive).

On to `Cc1cc2nc(-c3ccc(NC(=O)C(C)C)cc3)oc2cc1C`, for which the EC50 is > 95.1 µM (inactive).

Regarding `CC1CCN(S(=O)(=O)c2ccc3c(c2)oc(=O)n3CC(=O)NCc2ccc3c(c2)OCO3)CC1`, the EC50 was > 30 µM (inactive).

Consider `Cc1n[nH]c(C)c1N1C(=O)c2cccc3c(N4CCCCCC4)ccc(c23)C1=O`, for which the EC50 is 37 µM (inactive).

As to `CCOC(=O)Nc1ccc2c(c1)N(C(=O)CCN(C)C)c1ccccc1S2`, the EC50 was > 10 µM (inactive).

`Cc1ccsc1C(=O)OCC(=O)c1cc(C)n(CC2CCCO2)c1C` (centres undefined): the EC50 is > 95.1 µM (inactive).

Turning to `CCc1c(C)sc(NC(=O)c2cc(-c3ccco3)on2)c1C#N`, the EC50 is > 95.1 µM (inactive).

For `CCCn1c(CNc2ccc(Br)cc2)nc2ccccc21`, the EC50 was 38.1 µM (inactive).

As to `Cc1ccc(C(C)C)c(OCc2ccc(-c3nnco3)cc2)c1`, the EC50 was > 95.1 µM (inactive).

For `Cc1ccc(OCc2nc(-c3ccccc3)no2)c(C)c1`, the EC50 is > 95.1 µM (inactive).

Turning to `O=S(=O)(CCSc1ccccn1)c1nc2ccccc2s1`, the EC50 is 4.71 µM.

`COc1ccc(S(=O)(=O)Cc2ccc(C(=O)N3CCN(c4cccc(C)c4C)CC3)o2)cc1`: the EC50 is > 30 µM (inactive).

`O=C(c1cc(-c2ccco2)on1)N1CCN(C(c2ccccc2)c2ccccc2)CC1`: the EC50 is > 95.1 µM (inactive).

With `Cc1csc(NC(=O)C(Cc2ccccc2)n2cccc2)n1` (centres undefined), the EC50 was > 30 µM (inactive).

`COc1ccccc1-c1nc(-c2ccc(Br)cc2)no1`: the EC50 was > 95.1 µM (inactive).

On to `O=C(CSc1nnc(Cc2csc(Nc3cccc(Cl)c3)n2)o1)N1CCc2ccccc21`, for which the EC50 is > 95.1 µM (inactive).

As for `CCCc1cc(C(=O)N2CCN(C(c3ccccc3)c3ccccc3)CC2)no1`, the EC50 was > 95.1 µM (inactive).

On to `Clc1ccc(OCc2nc(-c3ccncc3)no2)c(Br)c1`, for which the EC50 was > 30 µM (inactive).

As for `CC(C)Cn1c(N)c(C(=O)CSc2ccc3c(c2)OCCO3)c(=O)n(C)c1=O`, the EC50 is 88.5 µM (inactive).

In the case of `Cc1nc2sc(-c3ccccc3)cc2c(=O)n1-n1cccc1`, the EC50 was > 95.1 µM (inactive).

With `COc1cccc(NC(=O)Nc2nnc(N3CCCCC3C)s2)c1` (centres undefined), the EC50 was 40 µM (inactive).

`COC(=O)c1c(C)n(-c2ccc(OC)cc2)c2ccc(O)cc12`: the EC50 is 20.1 µM (inactive).

For `CC(C)(C)OC(=O)N[C@@H](Cc1ccccc1)c1nnc(S(=O)(=O)Cc2cccc(F)c2)o1`, the EC50 was 2.63 µM.

For `COc1ccccc1-n1nnnc1S(=O)(=O)Cc1ccc(Cl)cc1`, the EC50 was 3.05 µM.

Regarding `Oc1c(C(c2ccco2)N2CCN(C(c3ccccc3)c3ccccc3)CC2)sc2ncnn12` (centres undefined), the EC50 was 39.5 µM (inactive).

For `Cc1ccc2c(c1)N(CC(=O)Nc1ccc3c(c1)OCCO3)C(=O)CO2`, the EC50 is > 95.1 µM (inactive).

Turning to `COc1ccc(-n2c(C)cc(C(=O)CSc3nnc(-c4cccs4)o3)c2C)cc1`, the EC50 was 32.3 µM (inactive).

Turning to `CCCS(=O)(=O)c1nnnn1-c1cccc(OC)c1`, the 50% effective concentration (EC50) is 0.988 µM.

For the compound `COc1ccc(Cc2nc(-c3ccc(-n4cccc4)cc3)no2)cc1OC`, the EC50 was > 95.1 µM (inactive).

As to `Cc1ccc(N2C(=O)c3cccc4c(N5CCN(C)CC5)ccc(c34)C2=O)c2cccnc12`, the EC50 was > 95.1 µM (inactive).

`O=C(Nc1nc(-c2ccc(Cl)s2)cs1)c1ccncc1`: the EC50 was > 95.1 µM (inactive).

For `CCc1ccc(-c2nc(-c3ccncc3)no2)cc1`, the EC50 is > 95.1 µM (inactive).

With `CC1Cc2cc(-c3csc(NC(=O)Cc4cccs4)n3)ccc2N1S(C)(=O)=O` (centres undefined), the EC50 was 23.8 µM (inactive).

With `Cc1ccc2[nH]c3c(NCc4ccco4)ncnc3c2c1`, the EC50 was 30.9 µM (inactive).

As for `CCN(CC)C(=O)CSC(=Nc1ccccc1F)NC#N`, the EC50 is > 95.1 µM (inactive).

Turning to `Cc1cc(C)n2nc(SCC(=O)c3cc(C)n(-c4cc(C)on4)c3C)nc2n1`, the EC50 was 63.5 µM (inactive).

Consider `O=C(Nc1cccc(C(F)(F)F)c1)C1CCCN1S(=O)(=O)c1cccc2cccnc12` (centres undefined), for which the EC50 is > 30 µM (inactive).

For the compound `COc1ccccc1-c1cc(C(=O)Nc2cc(C)nn2-c2ccccc2)no1`, the EC50 is > 95.1 µM (inactive).

For `CCc1ccc(-c2nc(CSCC(=O)N3CCN(c4ccccn4)CC3)c(C)o2)cc1`, the EC50 was 18.7 µM (inactive).

`Cc1nc(NC(C)c2ccccc2)c2oc3ccccc3c2n1` (centres undefined): the EC50 is 52.9 µM (inactive).

For `O=C(Nc1ccc(Oc2ccccc2)cc1)c1cnc2n(c1=O)CCS2`, the EC50 is > 95.1 µM (inactive).

For the compound `Cc1nc(C)c(C(=O)Nc2ccc(Oc3ccccc3)cc2)o1`, the EC50 is > 30 µM (inactive).

Take `Cc1cc(C(=O)CSc2nnnn2C)c(C)n1-c1cccc(F)c1`: the EC50 was > 95.1 µM (inactive).

As to `CCc1nnc(NC(=O)C2CCCCC2)s1`, the EC50 was > 95.1 µM (inactive).

On to `Cc1ccc(-c2nc(COC(=O)c3c(C)noc3C)cs2)cc1`, for which the EC50 was > 95.1 µM (inactive).

Turning to `CC(C)c1ccc2oc(-c3ccc(N)cc3)nc2c1`, the EC50 is > 30 µM (inactive).

Regarding `CCNc1nc2c(c(=O)n(C)c(=O)n2C)n1Cc1ccc(Cl)cc1`, the EC50 was > 95.1 µM (inactive).

Take `COc1ccc(-c2nc(-c3ccccc3OC)no2)cc1OC`: the EC50 is > 95.1 µM (inactive).

As to `COC(=O)c1sc(NC(=O)c2ccc(OC)cc2OC)nc1C`, the EC50 is > 95.1 µM (inactive).

As to `CCOc1ccccc1COC(=O)c1cccc(-n2cnnn2)c1`, the EC50 was > 95.1 µM (inactive).

Consider `CC(=O)N1C=CN(C(C)=O)C(c2cn(C)c3ccccc23)C1c1cn(C)c2ccccc12` (centres undefined), for which the EC50 was > 30 µM (inactive).

`Cc1ccccc1-c1nnc(SCc2ccccc2F)o1`: the EC50 is > 95.1 µM (inactive).
